Source: patent US9359371B2, “Bicyclic substituted pyrimidine compounds” (Xuanzhu Pharma Co., Ltd., priority 2012, dated 2016)
Read-outs that look alike come from different tables or passages of the source.

How the values were obtained:
[1] = system: length of New Zealand rabbit's penis; experiment: Pharmacological activity in vivo (intravenous injection), rabbit penis length; design: species or system New Zealand rabbits; conditions: iv 10 mg/kg, sodium nitroprussiate 0.2 mg/kg iv 5 min after, 0-120 min
Description: Experiment 5: Assay of Pharmacological Activity In Vivo (Intravenous Injection)
After accommodating with the environment, the New Zealand rabbits were grabbed everyday. When the rabbits were accustomed to the repeated grabbing, drug administration was began. The animals were randomly divided into groups by weight. The test compounds were separately dissolved in menstruum. […] The corresponding test compounds were injected into the auricular veins of animals of each group. The dosage of the compounds in Table 5 was 10 mg/kg, and the administration volume was 1 mL/kg. The dosage of the compounds in Table 6 was 10 mg/kg, and the administration volume was 2 mL/kg. 0.2 mg/kg sodium nitroprussiate was intravenously injected into the rabbits 5 min after the administration of the test compounds, with the administration volume of 0.5 mL/kg.
The length of the rabbit's penis was measured with a digital caliper before and 10, 15, 30, 50, 60, 90 and 120 min after the administration. Touch of the rabbit's penis by the caliper was avoided during the measurements.

[2] = system: length of New Zealand rabbit's penis; experiment: Pharmacological activity in vivo (oral administration, 100 mg/kg), rabbit penis length; design: species or system New Zealand rabbits; conditions: Table 7; oral 100 mg/kg; 0-240 min
Excerpt: Experiment 6: Assay of Pharmacological Activity In Vivo (Oral Administration)
After accommodating with the environment, the New Zealand rabbits were grabbed everyday. When the rabbits were accustomed to the repeated grabbing, drug administration was began. The animals were randomly divided into groups by weight, with 6 rabbits of each group. The test compounds were separately dissolved in menstruum. […] The corresponding test compounds were orally administrated to animals of each group. The dosage was 100 mg/kg, and the administration volume was 1 mL/kg. The length of the rabbit's penis was measured with a digital caliper before and 5, 10, 15, 30, 50, 60, 90, 120, 180 and 240 min after the administration. Touch of the rabbit's penis by the caliper was avoided during the measurements.

hERG channel = hERG channel (Homo sapiens (Human), UniProt Q12809); experiment: hERG potassium channel whole-cell patch clamp on CHO-K1 cell line
Chain of hERG channel (Q12809 whole entry): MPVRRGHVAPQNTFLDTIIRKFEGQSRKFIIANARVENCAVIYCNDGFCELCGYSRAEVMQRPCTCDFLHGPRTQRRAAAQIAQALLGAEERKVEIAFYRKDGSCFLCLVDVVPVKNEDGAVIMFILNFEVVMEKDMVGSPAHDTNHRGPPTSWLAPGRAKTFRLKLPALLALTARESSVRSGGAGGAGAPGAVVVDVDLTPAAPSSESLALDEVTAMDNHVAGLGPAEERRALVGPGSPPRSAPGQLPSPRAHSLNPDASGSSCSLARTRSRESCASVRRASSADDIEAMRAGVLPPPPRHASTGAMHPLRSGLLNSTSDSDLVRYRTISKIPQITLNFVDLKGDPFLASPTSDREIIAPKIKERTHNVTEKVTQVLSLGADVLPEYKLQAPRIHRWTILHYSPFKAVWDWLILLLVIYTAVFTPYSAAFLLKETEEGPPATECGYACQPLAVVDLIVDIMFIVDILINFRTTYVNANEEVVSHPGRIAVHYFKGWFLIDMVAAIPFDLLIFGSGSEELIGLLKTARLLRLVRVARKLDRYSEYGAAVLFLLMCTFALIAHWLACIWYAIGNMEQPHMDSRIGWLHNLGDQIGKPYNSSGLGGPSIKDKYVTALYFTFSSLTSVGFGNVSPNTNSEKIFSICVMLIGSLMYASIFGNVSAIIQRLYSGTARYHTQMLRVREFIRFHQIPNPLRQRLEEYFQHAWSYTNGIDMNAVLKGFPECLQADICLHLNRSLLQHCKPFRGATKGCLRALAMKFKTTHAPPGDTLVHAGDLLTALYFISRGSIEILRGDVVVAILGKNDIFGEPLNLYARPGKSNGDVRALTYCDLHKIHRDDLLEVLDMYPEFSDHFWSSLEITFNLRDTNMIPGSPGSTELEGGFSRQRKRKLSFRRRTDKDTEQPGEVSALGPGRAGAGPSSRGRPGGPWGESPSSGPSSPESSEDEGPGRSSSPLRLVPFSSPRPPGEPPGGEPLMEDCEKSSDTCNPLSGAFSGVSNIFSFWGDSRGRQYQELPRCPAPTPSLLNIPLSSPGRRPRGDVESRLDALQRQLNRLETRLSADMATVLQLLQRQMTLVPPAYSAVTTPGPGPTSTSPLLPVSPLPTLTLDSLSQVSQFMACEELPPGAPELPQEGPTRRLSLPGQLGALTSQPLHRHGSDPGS
Excerpt: Experiment 8: Detection of Inhibitory Effect of the Compounds of the Present Invention on hERG Potassium Channel by the Patch Clamp Method
Rapidly activated human delayed rectifying outward potassium current (IKr) is mainly mediated by hERG ion channel and is involved in repolarization of human cardiac muscle cell. Clinically, blocking of the current by a drug is the main cause of QT interval prolongation syndrome, acute arrhythmia and even sudden death. The main purpose of the experiment is to test the blocking effect of the compounds of the present invention on hERG channel, and to determine the half maximal inhibitory concentration (IC50) of the compounds.
The experiment mainly included: (1) recording hERG current by patch clamp technique on CHO-K1 cell line which stably expressed hERG channel; (2) calculating the Inhibition rate of each concentration according to hERG tail current; (3) testing each compound at 5 concentrations to calculate IC50; (4) testing 2 cells at each concentration; (5) a positive control.
The structures and synthesis of Compound 88 (WO-88) and Compound 93 (WO-93) as disclosed in WO200119802A were described in Example 55 and Example 56.
Drug for positive control: Amitriptyline hydrochloride (Sigma-Aldrich, an international standard blocker for hERG channel)
Pippette Solution (in mM): KCl 120, KOH 31.25, CaCl2 5.374, MgCl2 1.75, Ethylene glycol-bis(β-aminoethyl ether)-N,N,N′,N′-tetraacetic acid (EGTA) 10, HEPES 10, Na2-ATP 4, adjusted to a pH of 7.2 with 1N potassium hydroxide; adjusted to an osmotic pressure of 280-290 mOsm; preserved at −20° C. after filtration.
Preparation of compounds: Some of the compounds of the present invention and Amitriptyline hydrochloride as the positive control drug were separately dissolved in 100% DMSO (Merck, 61850125001730), then prepared into stock solutions of 30 mM. Before the experiment, the above stock solutions were diluted with DMSO to a concentration of 1000-fold of the experimental concentration. Then the diluted solutions were further diluted with extracellular solution by 1:1000 to the required experimental concentration. The final concentration of DMSO in the extracellular solution was kept as 0.1%.
Stable cell line CHO-hERG was purchased from AVIVA Company. The hERG current on the cell line was recorded. For the purpose of quality control, the smallest seal resistance was no less than 500 MΩ, and the hERG current was no less than 0.4 nA.
The hERG current was recorded by a whole-cell patch clamp technique. Cell suspension was added into a 35-mm culture dish. The culture dish was placed on the objective table of an inverted microscope. Upon cell attachment, perfusion was conducted with the extracellular solution at a flow rate of 1-2 mL/min.
Glass microelectrode with the pipette tip resistance of 2-5 MΩ was controlled by a microelectrode puller via a two-step process. After the whole-cell record was set up, the clamp potential was kept at −80 mV. The cell was depolarized to +60 mV by applying a voltage stimulus, and then repolarized to −50 mV to obtain the hERG tail current. Recordation was conducted after the current was stable. The extracellular perfusion was started from the lowest concentration, with 5-10 min for each concentration until the current was stable, and then conducted with the next concentration.
Stimulus payment and signal collection were performed by A/D-D/A conversion using Digidata 1440 (Molecular Devices) and pCLAMP software (Version 10.2, Molecular Devices). Signal amplification was performed on a patch clamp amplifier (Multiclamp 700B, Molecular Devices), with a filter of 1 KHz. Further data analysis and curve fitting were conducted by Clampfit (version 10.2, Molecular Devices) and Prism. The data were presented as mean value±standard deviation.
In the process of data analysis, the peak value and the baseline of the tail current were corrected when determining the blocking effect on hERG.

[3] = Pharmacokinetics (PK) in SD rats; format: in vivo; conditions: rat; for bioavailability: read-out: F % (absolute bioavailability)
[4] = in human; cited from earlier work
PDE-6 = conditions: cited from earlier work
PDE-11 = PDE-11 (Homo sapiens (Human), UniProt Q9HCR9); conditions: cited from earlier work
Chain of PDE-11 (Q9HCR9 whole entry): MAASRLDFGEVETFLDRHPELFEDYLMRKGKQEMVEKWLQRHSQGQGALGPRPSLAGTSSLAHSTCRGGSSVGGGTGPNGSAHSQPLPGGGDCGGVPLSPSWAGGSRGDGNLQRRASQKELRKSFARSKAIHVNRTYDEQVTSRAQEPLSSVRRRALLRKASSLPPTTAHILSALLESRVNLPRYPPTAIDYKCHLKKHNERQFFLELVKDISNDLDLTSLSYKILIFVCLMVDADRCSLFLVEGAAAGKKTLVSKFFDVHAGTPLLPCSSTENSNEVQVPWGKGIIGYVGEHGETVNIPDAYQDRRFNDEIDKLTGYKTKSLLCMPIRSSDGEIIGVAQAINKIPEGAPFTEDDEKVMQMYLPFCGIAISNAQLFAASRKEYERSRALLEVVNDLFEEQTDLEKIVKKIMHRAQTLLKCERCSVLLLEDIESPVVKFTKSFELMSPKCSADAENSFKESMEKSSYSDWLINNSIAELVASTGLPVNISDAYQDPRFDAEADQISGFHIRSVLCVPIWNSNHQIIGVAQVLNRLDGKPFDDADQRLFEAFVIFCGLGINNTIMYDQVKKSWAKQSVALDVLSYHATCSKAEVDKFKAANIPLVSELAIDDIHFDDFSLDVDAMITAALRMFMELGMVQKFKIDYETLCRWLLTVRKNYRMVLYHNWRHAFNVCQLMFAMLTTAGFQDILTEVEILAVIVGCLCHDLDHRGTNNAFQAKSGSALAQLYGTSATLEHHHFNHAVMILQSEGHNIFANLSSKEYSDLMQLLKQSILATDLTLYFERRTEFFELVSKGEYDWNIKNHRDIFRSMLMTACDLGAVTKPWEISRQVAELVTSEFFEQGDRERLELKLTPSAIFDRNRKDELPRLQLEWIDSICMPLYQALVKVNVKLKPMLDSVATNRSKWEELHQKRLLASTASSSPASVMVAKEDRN

PDE-5A enzyme = PDE-5A enzyme (Homo sapiens (Human), UniProt O76074); experiment: Caliper Mobility-Shift PDE-5A Assay; format: biochemical; conditions: Table 1; Avanafil value is the control
[5] = biological target: PDE-5 enzyme (human blood platelets) (Homo sapiens (Human), UniProt O76074); experiment: PDE-5 enzyme assay, [3H]cGMP; format: biochemical
bovine retinal PDE-6 [6] = biological target: bovine retinal PDE-6 (Bos taurus (Bovine), UniProt P11541+P23439); experiment: PDE-6 enzyme assay, [3H]cGMP; format: biochemical
Chain of bovine retinal PDE-6 (Bos taurus (Bovine), UniProt P11541+P23439) (P11541 whole entry, looked up): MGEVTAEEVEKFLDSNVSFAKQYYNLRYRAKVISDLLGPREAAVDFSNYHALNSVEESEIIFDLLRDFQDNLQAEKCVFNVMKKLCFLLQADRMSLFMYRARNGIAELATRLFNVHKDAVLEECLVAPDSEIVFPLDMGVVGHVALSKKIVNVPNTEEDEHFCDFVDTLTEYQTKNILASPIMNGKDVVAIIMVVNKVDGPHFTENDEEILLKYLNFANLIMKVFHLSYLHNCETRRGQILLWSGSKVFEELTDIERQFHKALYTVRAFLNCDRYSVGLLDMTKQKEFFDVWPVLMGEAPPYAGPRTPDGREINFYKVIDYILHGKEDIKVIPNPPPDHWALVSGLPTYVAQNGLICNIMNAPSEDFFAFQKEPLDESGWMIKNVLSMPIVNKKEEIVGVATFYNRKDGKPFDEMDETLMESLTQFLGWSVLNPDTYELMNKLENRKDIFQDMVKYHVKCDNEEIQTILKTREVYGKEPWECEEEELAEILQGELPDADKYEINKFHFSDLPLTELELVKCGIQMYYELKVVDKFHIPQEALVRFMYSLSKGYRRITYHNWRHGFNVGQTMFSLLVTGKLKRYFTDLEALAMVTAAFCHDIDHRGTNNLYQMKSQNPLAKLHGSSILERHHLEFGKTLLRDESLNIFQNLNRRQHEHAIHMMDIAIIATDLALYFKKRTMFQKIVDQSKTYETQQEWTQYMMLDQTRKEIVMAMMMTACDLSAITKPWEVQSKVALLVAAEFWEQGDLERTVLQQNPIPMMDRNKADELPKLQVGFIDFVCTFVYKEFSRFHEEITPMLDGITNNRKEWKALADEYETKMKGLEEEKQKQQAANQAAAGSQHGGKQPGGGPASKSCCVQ
Chain of bovine retinal PDE-6 (Bos taurus (Bovine), UniProt P11541+P23439) (P23439 whole entry, looked up): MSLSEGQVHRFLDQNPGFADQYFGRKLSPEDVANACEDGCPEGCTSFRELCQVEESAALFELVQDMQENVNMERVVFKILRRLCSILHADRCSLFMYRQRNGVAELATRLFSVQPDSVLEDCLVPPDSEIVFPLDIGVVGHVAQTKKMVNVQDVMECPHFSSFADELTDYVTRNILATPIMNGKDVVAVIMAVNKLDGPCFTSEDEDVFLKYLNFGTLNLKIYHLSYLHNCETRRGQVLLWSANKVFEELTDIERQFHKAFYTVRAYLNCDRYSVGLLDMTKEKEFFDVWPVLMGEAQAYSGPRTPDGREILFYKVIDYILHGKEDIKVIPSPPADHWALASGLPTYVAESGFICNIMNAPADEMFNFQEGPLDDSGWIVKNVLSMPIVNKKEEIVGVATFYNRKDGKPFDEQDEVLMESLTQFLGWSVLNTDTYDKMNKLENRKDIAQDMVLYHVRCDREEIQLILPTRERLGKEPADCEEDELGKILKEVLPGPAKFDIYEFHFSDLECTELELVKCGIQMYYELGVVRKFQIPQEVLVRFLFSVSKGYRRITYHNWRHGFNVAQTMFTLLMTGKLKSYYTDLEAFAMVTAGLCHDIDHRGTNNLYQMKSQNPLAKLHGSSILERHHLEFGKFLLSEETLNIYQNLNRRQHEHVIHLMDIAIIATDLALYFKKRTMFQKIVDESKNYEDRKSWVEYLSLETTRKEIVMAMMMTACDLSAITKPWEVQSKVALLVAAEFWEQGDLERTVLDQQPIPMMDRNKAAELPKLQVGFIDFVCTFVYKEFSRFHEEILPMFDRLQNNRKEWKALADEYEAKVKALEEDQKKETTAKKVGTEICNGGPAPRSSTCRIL
Description: (§1) Experiment 3: Measurement of Enzyme Activity on PDE-6 Enzyme In Vitro
(§2) Source of enzyme: PDE-6, bovine retinal PDE-6
(§3) Method: The test compound or solvent was incubated at 25° C. for 15 min with enzyme solution (0.2 μg/mL) in Tris-HCl buffer of pH 7.5. 100 μM cGMP and 0.03 μM [^3H] cGMP were then added to activate the reaction. The mixture was incubated for 20 min. The reaction was stopped at 100° C. By addition of snake venom nucleotidase, the product [^3H] GMP was converted into [^3H] Guanosine, which was separated with AG1-X2 resin. The amount of [^3H] Guanosine was measured.

bovine retinal PDE-6 [7] = experiment: PDE-6 enzyme assay, [3H]cGMP; format: biochemical; conditions: selectivity >70 called high
Description: as §1, §2, §3

[8] = system: length of New Zealand rabbit's penis; experiment: Pharmacological activity in vivo (oral administration, 70 mg/kg, with SNP), rabbit penis length; design: species or system New Zealand rabbits; conditions: Table 8; oral 70 mg/kg; SNP 0.2 mg/kg iv 60 min after; 0-180 min
Description: Experiment 7: Assay of Pharmacological Activity In Vivo (Oral Administration)
After accommodating with the environment, the New Zealand rabbits were grabbed everyday. When the rabbits were accustomed to the repeated grabbing, drug administration was began. The animals were randomly divided into groups by weight, with 6 rabbits of each group. […] The corresponding test compounds were orally administrated to animals of each group. The dosage was 70 mg/kg, and the administration volume was 1 mL/kg. SNP (0.2 mg/kg, 0.5 mL/kg) was injected into the auricular veins of rabbits 60 min after the administration of the test compounds. The length of the rabbit's penis was measured with a digital caliper before and 10, 15, 30, 50, 60, 65, 70, 75, 90, 110, 120 and 180 min after the administration. Touch of the rabbit's penis by the caliper was avoided during the measurements.

[9] = SD, plasma, po, intragastric administration, 2 mg/kg
[10] = Table 2, human blood platelet enzyme, read-out: IC50 on PDE-5
[11] = Table 4-1, read-out: PDE-6 (IC50 nM)

Structure (SMILES): COc1ccc(CN=c2[nH]c(N3CCC[C@H]3CO)ncc2C(=O)NCc2ncccn2)cc1Cl [Avanafil, reference compound]
- AUC of penis length ([1]; Table 5, 1 mL/kg): 317.9 mm × min
- AUC of penis length ([1]; Table 6, 2 mL/kg): 421.2 mm × min
- AUC of penis length [2]: 199.4 mm × min
- IC50 (hERG channel): 14600 nM
- AUC(0-inf) [3, 9]: 50 ng·h/mL
- Cmax [3, 9]: 18 ng/mL
- Tmax [3, 9]: 0.33 h
- bioavailability [3, 9]: 4.5%
- AUC(0-inf) ([3]; SD, plasma, intravenous injection, 2 mg/kg): 382 ng·h/mL
- Cl_obs ([3]; intravenous injection, 2 mg/kg): 88.5 mL/min/kg
- Vss_obs ([3]; intravenous injection, 2 mg/kg): 3.56 L/kg
- half-life [4]: about 1.2 h
- ratio PDE-6/5 (PDE-6): about 120
- inhibitory effect on PDE-11 (PDE-11): no inhibitory effect on PDE-11

Structure (SMILES): COc1ccc(CNc2nc(N3CC4CC4C3)ncc2C(=O)NCc2ccccc2)cc1Cl (stereo not shown) [Compound 3, N-benzyl-2-(3-azabicyclo[3.1.0]hexan-3-yl)-4-((3-chloro-4-methoxybenzyl)amino)pyrimidine-5-formamide]
- IC50 (PDE-5A enzyme): 12.9 nM
- IC50 [5, 10]: 0.91 nM
- IC50 (bovine retinal PDE-6 [6]; [11]): 8.89 nM
- selectivity on PDE-5 enzyme versus PDE-6 (in words) (bovine retinal PDE-6 [7]): higher selectivity on PDE-5 enzyme than to PDE-6
- AUC of penis length [8]: 46.26 mm × min
- IC50 (hERG channel): > 27800 nM
- inhibitory effect on hERG channel (in words) (hERG channel; human, CHO-K1 cells stably expressing hERG channel, pH 7.4): none of Compound 3, 11 and 50 of the present invention had a significant inhibitory effect

Structure (SMILES): COc1ccc(CNc2nc(N3CCC4(CC4)C3)ncc2C(=O)N[C@H]2CC[C@H](O)CC2)cc1Cl [Compound 38, 4-((3-chloro-4-methoxybenzyl)amino)-N-(trans-4-hydroxycyclohexyl)-2-(5-azaspiro[2.4]heptan-5-yl)pyrimidine-5-formamide]
- IC50 [5, 10]: 0.8 nM
- IC50 ([5]; Table 4-1, read-out: PDE-5 (IC50 nM)): 0.8 nM
- IC50 (bovine retinal PDE-6 [6]; Table 3, read-out: IC50 on PDE-6): 58 nM
- IC50 (bovine retinal PDE-6 [6]; [11]): 58 nM
- AUC of penis length ([1]; Table 6, 2 mL/kg): 772.8 mm × min
- AUC of penis length [2]: 802.7 mm × min
- AUC of penis length [8]: 654.0 mm × min
- half-life [3, 9]: 2.11 h
- bioavailability [3, 9]: 35%
- half-life ([3]; SD, plasma, intravenous injection, 1 mg/kg): 3.5 h
- Cl_obs ([3]; intravenous injection, 1 mg/kg): 16.8 mL/min/kg
- Vss_obs ([3]; intravenous injection, 1 mg/kg): 4.47 L/kg

Structure (SMILES): CN1CC(=O)N2[C@H](c3ccc4c(c3)OCO4)c3[nH]c4ccccc4c3C[C@@H]2C1=O [Tadalafil]
- half-life [4]: about 16 h
